The text below walks through data of patent US9102669B2, “Substituted piperidinyl-pyridazinyl derivatives useful as SCD 1 inhibitors” (Janssen Pharmaceutica NV, priority 2011, dated 2015).

pIC50: −log10 of the molar value. “And” between values parts separate entries of the source, which are not always exact repeats. Equal entries are not always repeated.

The term pIC50 denotes −log10 of the IC50, conventionally taken in molar units.

Assay [1] deals with SCD1 (Homo sapiens (Human), UniProt O00767). Put plainly: SCD1 13C-palmitic acid assay in A431 cells. As to conditions: read-out: A431 cells 13C-PA IC50. The assay is classed as cell-based. As for the experimental part: Human epithelial carcinoma A431 cells were seeded at 100,000 cells/well in complete growth medium (DMEM, Cellgro#10-013-CM, 4.5 g/L glucose, 10% FBS) in the presence of 0.05 mg/mL human insulin (Hannas Pharmaceutical Supply Co Inc, Humanlin 100 U/ml, 4 mg/ml) in 96-well tissue culture plate. 24 hr later, the cells were washed extensively with Assay Buffer (DMEM, Cellgro#10-013-CM, 4.5 g/L glucose, supplemented with 0.05 mg/mL Human Insulin and 0.1% Fatty Acid Free BSA). […] The cells were then returned to the tissue culture incubator (37° C. and 5% CO2) for 4 hrs. At the end of incubation, the cells were washed three times with 200 μL/well Hanks buffer (HBSS) and then stored at −20° C. until extraction.
For fatty acid extraction, after thawing out the plates, 40 μL of 1N KOH (containing 5 μM of internal standard 7,7,8,8-D4 palmitate) was added to each well and cell plates were incubated at 37° C. for 30 minutes. […] Acetonitrile (100 μL) was then added to extract fatty acids, followed by centrifugation at 3000 rpm for 10 minutes. 75 μL of extract was then transferred to a new glass vial in a 96-well cluster plate. 5 μL was injected for LC/MS analysis for detection of ^13C-palmitic acid and ^13C-palmitoleic acid. Formation of product ^13C-palmitoleic acid was determined as an index of SCD1 activity.
LC/MS analysis was performed as following. An Agilent 1100 Liquid Chromatographic System (Palo Alto, Calif.) consisting of a binary pump, a degasser and an autosampler was used. Separation of free fatty acids was performed on a Zorbax SB-C8 column (2.1×50 mm, particle size=3.5 μm). An isocratic elution was carried out with 10 mM triethylamine acetate in water: acetonitrile (3:7) at a flow rate of 0.3 mL/min. The column temperature was set at 30° C. and the sample injection volume was 5 μL. The LC run cycle was 4 min. A Micromass triple-quadrupole Quattro Micro mass […] (Waters, Beverly, Mass.) was interfaced with the LC system through a Z-spray electrospray ion source and was operated in the negative ion mode. Nitrogen was used as nebulizing gas, desolvation gas and cone curtain gas and argon was chosen as collision gas. The triple quadrupole MS source parameters were set as follows: capillary voltage, 3200V; cone voltage, 25V; exctractor 2V; source temperature, 120° C.; desolvation temperature, 300° C.; cone gas flow, 50 L/h; and desolvation gas flow, 700 L/h. […] MassLynx software version 4.0 was used for system control and data processing. The signal of U-^13C-palmitoleic acid was normalized to an internal standard.

In assay [2] the target is SCD1 (Rattus norvegicus (Rat), UniProt P07308). Put plainly: SCD1 enzymatic assay in rat liver microsomes (RLM). The class given is biochemical. The conditions noted are these: rat liver microsomes; for inhibition at 1 µM / % Inh.@ 1 μM: 1 μM test compound; for inhibition at 1 µM: read-out: % Inh.@ 1 μM. As for the experimental part: Step 1: Preparation of Rat Liver Microsome (RLM):
Sprague Dawley rats from Charles River (200-225 g) underwent 2-cycle of fast-re-feeding (24-hour fast followed by 24-hour feeding with fat-free high carbohydrate diet, Reseach Diet, D00042802). The livers were removed and homogenized 1:4 (w/v) with pre-chilled, homogenizing buffer (10 mM Tris-HCl, 0.25 M sucrose, 1 mM EDTA, pH 7.4, supplemented with protease inhibitor cocktail). The homogenate was spun at 12,000×g for 15 min at 4° C. The supernatant was then re-centrifuged at 100,000×g for 60 min at 4° C. The pellet was re-suspended in 2 ml pre-chilled […] potassium phosphate buffer, pH 7.2, 10 mM EDTA at a concentration of 20 mg/ml. The resulting rat liver microsome (RLM) preparation was stored at −80° C.
Step 2: SCD1 Enzymatic Assay in RLM:
The SCD1 enzymatic assay was done in a volume of 50 μL using 10 μg of RLM (prepared as described above) in a 96-well polypropylene plate (enzyme reaction buffer contains 0.1 M K-Phosphate Buffer, 10 mM ATP, 6 mM MgCl2. 1 mM CoA, 1 mM β-NADH, 1.6 mM L-glutathione, 20 μM Stearoyl-CoA). Stearoyl-[9,10-^3H]-CoA (ARC-0390, 1 mCi/mL, 60 Ci/mmol,) was added at a final concentration of 2 μCi/mL. Test compound was then added to the reaction mixture at the selected concentration. After incubation at room temperature for 2 hours, 5 μL 1 N HCl was added to stop the reaction, followed by addition of 25 μL of 10% charcoal. The reaction mixture was then transferred to 96-well Multiscreen plate (Millipore, Cat#MSFCN6B50). […] The measured cpm values were fitted with Sigmoidal dose-response curve fit with Graphpad Prism.
A general note: Microsomes from liver hold many membrane-bound enzymes, among them those of drug oxidation.

SCD1 (Homo sapiens (Human), UniProt O00767), sequence (O00767 whole entry): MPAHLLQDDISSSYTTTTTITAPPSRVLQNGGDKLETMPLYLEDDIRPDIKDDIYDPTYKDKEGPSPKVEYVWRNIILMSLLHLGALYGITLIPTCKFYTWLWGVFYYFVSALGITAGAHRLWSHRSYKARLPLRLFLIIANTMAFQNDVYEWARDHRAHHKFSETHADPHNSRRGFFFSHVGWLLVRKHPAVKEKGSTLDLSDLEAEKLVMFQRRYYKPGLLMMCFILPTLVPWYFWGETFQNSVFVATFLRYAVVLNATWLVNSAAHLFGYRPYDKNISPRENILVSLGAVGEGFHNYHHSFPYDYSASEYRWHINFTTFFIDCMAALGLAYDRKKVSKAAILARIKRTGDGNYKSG
SCD1 (Rattus norvegicus (Rat), UniProt P07308), sequence (P07308 whole entry): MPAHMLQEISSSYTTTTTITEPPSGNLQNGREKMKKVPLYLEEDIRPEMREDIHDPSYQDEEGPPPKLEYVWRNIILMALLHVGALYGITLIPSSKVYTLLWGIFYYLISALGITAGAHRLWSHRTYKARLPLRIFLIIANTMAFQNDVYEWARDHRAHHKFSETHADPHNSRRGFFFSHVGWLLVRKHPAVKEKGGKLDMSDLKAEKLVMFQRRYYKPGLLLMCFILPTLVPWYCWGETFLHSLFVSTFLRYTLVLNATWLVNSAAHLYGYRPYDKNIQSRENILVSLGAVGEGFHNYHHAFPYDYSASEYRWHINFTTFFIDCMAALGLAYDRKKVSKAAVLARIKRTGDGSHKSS

Turning to `CCOC(=O)Cn1cc(-c2ccc(N3CCC(N4CCc5ccc(F)cc54)CC3)nn2)cn1` [compound 50, ethyl 2-(4-(6-(4-(6-fluoroindolin-1-yl)piperidin-1-yl)pyridazin-3-yl)-1H-pyrazol-1-yl)acetate], the pIC50 in assay [1] was 7.36. In addition, in assay [2], the inhibition at 1 µM was 93% and the pIC50 was 7.51.

Regarding `Cn1cc(-c2ccc(N3CCC(n4ncc5ccc(C(F)(F)F)cc54)CC3)nn2)cn1` [compound 81, 1-(1-(6-(1-methyl-1H-pyrazol-4-yl)pyridazin-3-yl)piperidin-4-yl)-6-(trifluoromethyl)-1H-indazole], the pIC50 in assay [1] was 7.82; in assay [2] it was 8.10. Moreover, the inhibition at 1 µM in assay [2] stood at 96%.

`OCc1nnc(-c2ccc(N3CCC(c4noc5ccc(F)cc45)CC3)nn2)o1` [compound 20, (5-(6-(4-(5-fluorobenzo[d]isoxazol-3-yl)piperidin-1-yl)pyridazin-3-yl)-1,3,4-oxadiazol-2-yl)methanol]: in assay [1], the pIC50 was 7.96. For the same compound, in assay [2], the “% Inh.@ 1 μM” value is 96, 96%; the inhibition at 1 µM is 96%; the pIC50 is 7.80 and 7.85.

As for `Cc1csc(-c2ccc(N3CCC(N4CCc5ccc(F)cc54)CC3)nn2)n1` [Compound #29, 2-(6-(4-(6-fluoroindolin-1-yl)piperidin-1-yl)pyridazin-3-yl)-4-methylthiazole], the pIC50 in assay [1] was 8.70. In assay [2], the inhibition at 1 µM amounted to 97% and the pIC50 is 8.15.

For the compound `OCCn1cc(-c2ccc(N3CCC(n4ncc5ccc(F)cc54)CC3)nn2)cn1` [compound 82, 2-(4-(6-(4-(6-fluoro-1H-indazo-1-yl)piperidin-1-yl)pyridazin-3-yl)-1H-pyrazol-1-yl)ethanol], in assay [1], the pIC50 is 7.02. In addition, in assay [2], the inhibition at 1 µM was determined as 99% and the pIC50 was 7.28.

Regarding `O=C(O)c1ccc(-c2ccc(N3CCC(N4CCc5ccc(F)cc54)CC3)nn2)cc1` [Compound #58, 4-(6-(4-(6-fluoroindolin-1-yl)piperidin-1-yl)pyridazin-3-yl)benzoic acid], the negative-log IC50 (pIC50) in assay [1] was 6.41. In assay [2], the inhibition at 1 µM turned out to be 78% and the negative-log IC50 (pIC50) was 6.46.

As for `Cc1ccc(-c2ccc(N3CCC(N4CCc5ccc(F)cc54)CC3)nn2)s1` [Compound #52, 6-fluoro-1-(1-(6-(5-methylthiophen-2-yl)pyridazin-3-yl)piperidin-4-yl)indoline], the figures for the pIC50 in assay [1] and in assay [2] were 8.22 and 6.92, respectively. Further, the inhibition at 1 µM in assay [2] was found to be 92%.

`COc1ccc(-c2ccc(N3CCC(N4CCc5ccc(F)cc54)CC3)nn2)cn1` [Compound #37, 6-fluoro-1-(1-(6-(6-methoxypyridin-3-yl)pyridazin-3-yl)piperidin-4-yl)indoline]: the pIC50 in assay [1] was 8.40; in assay [2], 7.92. Besides, in assay [2], the inhibition at 1 µM was determined as 98%.

In the case of `Cc1csc(-c2ccc(N3CCC(c4noc5ccc(F)cc45)CC3)nn2)c1` [compound 27, 5-fluoro-3-(1-(6-(4-methylthiophen-2-yl)pyridazin-3-yl)piperidin-4-yl)benzo[d]isoxazole], the pIC50 in assay [1] is 8.40 and 8.52. In assay [2], the “% Inh.@ 1 μM” value was found to be 55%; the inhibition at 1 µM was determined as 75%; the pIC50 is 6.94 and 6.91.

On to `Cc1ccc(-c2ccc(N3CCC(N4CCc5ccc(F)cc54)CC3)nn2)cn1` [Compound #30, 6-fluoro-1-(1-(6-(6-methylpyridin-3-yl)pyridazin-3-yl)piperidin-4-yl)indoline], for which the pIC50 in assay [1] was 8.70 and 8.52. In assay [2], the “% Inh.@ 1 μM” value stood at 99%; the inhibition at 1 µM came out at 95%; the pIC50 was 8.22 and 7.72.

In the case of `Cn1cc(-c2ccc(N3CCC(n4ncc5c(Cl)cccc54)CC3)nn2)cn1` [compound 61, 4-chloro-1-(1-(6-(1-methyl-1H-pyrazol-4-yl)pyridazin-3-yl)piperidin-4-yl)-1H-indazole], in assay [1], the pIC50 was 7.77. Besides, in assay [2], the inhibition at 1 µM is 101% and the pIC50 is 7.82.

Consider `CCOCCn1cc(-c2ccc(N3CCC(N4CCc5ccc(F)cc54)CC3)nn2)cn1` [Compound #78, 1-(1-(6-(1-(2-ethoxyethyl)-1H-pyrazol-4-yl)pyridazin-3-yl)piperidin-4-yl)-6-fluoroindoline], for which the pIC50 in assay [1] was 7.39. Further, in assay [2], the inhibition at 1 µM was 99% and the pIC50 is 7.92.

Take `COc1ncc(-c2ccc(N3CCC(c4noc5ccc(F)cc45)CC3)nn2)cn1` [compound 34, 5-fluoro-3-(1-(6-(2-methoxypyrimidin-5-yl)pyridazin-3-yl)piperidin-4-yl)benzo[d]isoxazole]: the pIC50 in assay [1] is 7.77. In assay [2], the inhibition at 1 µM was determined as 75% and the pIC50 was 7.02.

`OCCc1cnn(-c2ccc(N3CCC(N4CCc5ccc(F)cc54)CC3)nn2)c1` [Compound #43, 2-(1-(6-(4-(6-fluoroindolin-1-yl)piperidin-1-yl)pyridazin-3-yl)-1H-pyrazol-4-yl)ethanol]: the pIC50 in assay [1] was 7.96. In assay [2], the inhibition at 1 µM turned out to be 90% and the pIC50 was 7.70.

For the compound `Fc1ccc2c(c1)N(C1CCN(c3ccc(-c4cn[nH]c4)nn3)CC1)CC2` [compound 77, 1-(1-(6-(1H-pyrazol-4-yl)pyridazin-3-yl)piperidin-4-yl)-6-fluoroindoline], in assay [1], the pIC50 is 7.70. In assay [2], the inhibition at 1 µM was determined as 95% and the pIC50 is 7.68.

With `CCn1cc(-c2ccc(N3CCC(c4noc5ccc(F)cc45)CC3)nn2)cn1` [compound 13, 3-(1-(6-(1-ethyl-1H-pyrazol-4-yl)pyridazin-3-yl)piperidin-4-yl)-5-fiuorobenzo[d]isoxazole], the pIC50 in assay [1] was 6.01; in assay [2] it was 7.15. Further, in assay [2], the inhibition at 1 µM was 98%.

For `CNCc1cnn(-c2ccc(N3CCC(c4noc5ccc(F)cc45)CC3)nn2)c1` [compound 97, 1-(1-(6-(4-(5-fluorobenzo[d]isoxazol-3-yl)piperidin-1-yl)pyridazin-3-yl)-1H-pyrazol-4-yl)-N-methylmethanamine], the pIC50 in assay [1] was less than 6.00. Moreover, the inhibition at 1 µM in assay [2] was 11%.

As for `OCCc1cnn(-c2ccc(N3CCC(c4noc5ccc(F)cc45)CC3)nn2)c1` [compound 98, 2-(1-(6-(4-(5-fluorobenzo[d]isoxazol-3-yl)piperidin-1-yl)pyridazin-3-yl)-1H-pyrazol-4-yl)ethanol], in assay [1], the negative logarithm of the IC50 (pIC50) is 7.92. In assay [2], the inhibition at 1 µM worked out at 88% and the pIC50 was 7.22.

`COc1ccc2c(c1)N(C1CCN(c3ccc(-c4cnn(C)c4)nn3)CC1)CC2` [Compound #62, 6-methoxy-1-(1-(6-(1-methyl-1H-pyrazol-4-yl)pyridazin-3-yl)piperidin-4-yl)indoline]: the pIC50 in assay [1] is 6.39. Also, in assay [2], the inhibition at 1 µM amounted to 79% and the pIC50 was 6.50.
